In ChEMBL document CHEMBL1201862, “PubChem BioAssay data set” (2004):
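96-well plates; 48 h exposure; 5 concentrations. Endpoints by linear interpolation between flanking doses. Not reached: highest tested concentration assigned. GI50: concentration for 50% inhibition of growth.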 Activity calls are given as the source filed them. No stated cut-off is given here; in the data, active = GI50 up to about 1.1 µM and inactive = higher.

Tests used:
Assay in all cases: DTP human tumour cell line panel, 48 h
TK-10 = tested on: TK-10
LOX IMVI = tested on: LOX IMVI
UACC-257 = tested on: UACC-257
HCT-116 = tested on: HCT-116
MDA-MB-231 = tested on: MDA-MB-231
SN12C = tested on: SN12C
HOP-62 = tested on: HOP-62
MDA-N = tested on: MDA-N
CCRF-CEM = tested on: CCRF-CEM
HT-29 = tested on: HT-29
PC-3 = tested on: PC-3
NCI-H460 = tested on: NCI-H460
NCI/ADR-RES = tested on: NCI/ADR-RES
Hs-578T = tested on: Hs-578T
OVCAR-4 = tested on: OVCAR-4
SNB-19 = tested on: SNB-19
HL-60 = tested on: HL-60
786-0 = tested on: 786-0
SR = tested on: SR

Measured: GI50

CC(CC(C#N)(c1ccccc1)c1ccccc1)N1CCCCC1 (configuration not stated)
inactive: TK-10 20.6 µM | LOX IMVI 17.3 µM | UACC-257 14.6 µM | HCT-116 19.9 µM | MDA-MB-231 25.7 µM | SN12C 26 µM | HOP-62 29.2 µM | MDA-N 19.1 µM | CCRF-CEM 23.6 µM | HT-29 18.3 µM | PC-3 32.6 µM | NCI-H460 16 µM | NCI/ADR-RES 28.1 µM | Hs-578T 27.3 µM | OVCAR-4 39.6 µM | SNB-19 80.5 µM | HL-60 21 µM | 786-0 27.3 µM

COc1ccc2nccc(/C=C/c3ccc(N(C)C)cc3)c2c1
inactive: TK-10 > 10 µM | LOX IMVI > 10 µM | UACC-257 > 10 µM | HCT-116 8.59 µM | MDA-MB-231 > 10 µM | SN12C > 10 µM | HOP-62 > 10 µM | MDA-N 3.02 µM | CCRF-CEM 5.66 µM | HT-29 > 10 µM | PC-3 > 10 µM | NCI-H460 > 10 µM | NCI/ADR-RES > 10 µM | Hs-578T > 10 µM | OVCAR-4 > 10 µM | SNB-19 > 10 µM | HL-60 > 10 µM | 786-0 > 10 µM

Cc1cc2c(cc1Cl)SC(NNc1ccc([N+](=O)[O-])cc1)=NS2(=O)=O
inactive: TK-10 > 10 µM | LOX IMVI > 10 µM | UACC-257 > 10 µM | HCT-116 > 10 µM | MDA-MB-231 > 10 µM | SN12C > 10 µM | HOP-62 > 10 µM | MDA-N > 10 µM | CCRF-CEM > 10 µM | HT-29 > 10 µM | PC-3 > 10 µM | NCI-H460 > 10 µM | NCI/ADR-RES > 10 µM | Hs-578T > 10 µM | OVCAR-4 > 10 µM | SNB-19 > 10 µM | HL-60 > 10 µM | 786-0 > 10 µM

C/C(=N\c1ccc(Cl)cc1)c1ccncc1
inactive: LOX IMVI > 100 µM | UACC-257 22.6 µM | HCT-116 > 100 µM | MDA-MB-231 > 100 µM | SN12C > 100 µM | HOP-62 > 100 µM | MDA-N > 100 µM | CCRF-CEM 1.22 µM | HT-29 > 100 µM | PC-3 > 100 µM | NCI-H460 > 100 µM | NCI/ADR-RES > 100 µM | Hs-578T > 100 µM | OVCAR-4 > 100 µM | SNB-19 > 100 µM | 786-0 > 100 µM

CSCCC(NC(c1ccccc1)c1ccccc1)[PH](=O)O (configuration not stated)
inactive: TK-10 > 100 µM | LOX IMVI > 100 µM | UACC-257 > 100 µM | HCT-116 > 100 µM | SN12C > 100 µM | HOP-62 > 100 µM | MDA-N 10 µM | CCRF-CEM > 100 µM | HT-29 > 100 µM | PC-3 > 100 µM | NCI-H460 > 100 µM | NCI/ADR-RES > 100 µM | Hs-578T > 100 µM | SR > 100 µM | OVCAR-4 > 100 µM | SNB-19 > 100 µM | HL-60 > 100 µM | 786-0 > 100 µM

O=C(CC(C(=O)c1cccs1)c1ccsc1)c1ccccc1 (configuration not stated)
inactive: TK-10 > 100 µM | LOX IMVI > 100 µM | UACC-257 > 100 µM | HCT-116 38.3 µM | MDA-MB-231 17.5 µM | SN12C > 100 µM | HOP-62 > 100 µM | MDA-N 37.5 µM | CCRF-CEM > 100 µM | HT-29 > 100 µM | NCI-H460 51.4 µM | NCI/ADR-RES 25.1 µM | Hs-578T > 100 µM | SR 66.1 µM | OVCAR-4 24 µM | 786-0 > 100 µM

O=[N+]([O-])/C(C(Cl)=C(Cl)Cl)=C(\SCc1ccccc1)N1CCCCC1
inactive: TK-10 38.4 µM | LOX IMVI 15.9 µM | UACC-257 28.4 µM | HCT-116 16.3 µM | MDA-MB-231 13.3 µM | SN12C 20.2 µM | HOP-62 38.4 µM | MDA-N 17.5 µM | CCRF-CEM 8.34 µM | HT-29 36.6 µM | PC-3 20 µM | NCI-H460 23.8 µM | Hs-578T 27.5 µM | SR 8.34 µM | OVCAR-4 15 µM | SNB-19 56.2 µM | HL-60 9.73 µM | 786-0 15.9 µM

CSC1=C(C#N)C(=O)N(c2ccc(C)cc2)C(=S)C1C#N (configuration not stated)
inactive: TK-10 > 100 µM | LOX IMVI > 100 µM | UACC-257 > 100 µM | HCT-116 > 100 µM | MDA-MB-231 > 100 µM | SN12C > 100 µM | HOP-62 > 100 µM | MDA-N > 100 µM | CCRF-CEM > 100 µM | HT-29 > 100 µM | PC-3 > 100 µM | NCI-H460 > 100 µM | NCI/ADR-RES > 100 µM | Hs-578T > 100 µM | OVCAR-4 > 100 µM | SNB-19 > 100 µM | HL-60 63.8 µM | 786-0 > 100 µM

Cc1c(NC(=O)CCCl)c(=O)oc2c(C)c3occc(=O)c3cc12
inactive: TK-10 49.2 µM | UACC-257 60.1 µM | HCT-116 92.7 µM | HOP-62 > 100 µM | MDA-N 47.9 µM | CCRF-CEM 30.9 µM | HT-29 > 100 µM | NCI-H460 51.2 µM | NCI/ADR-RES > 100 µM | Hs-578T 35.5 µM | SR 80.4 µM | OVCAR-4 > 100 µM | SNB-19 75.5 µM | HL-60 57.7 µM | 786-0 > 100 µM

CCOP(=O)(OCC)/C(=C/c1cccs1)CC(C)=O
inactive: TK-10 > 100 µM | LOX IMVI > 100 µM | UACC-257 > 100 µM | HCT-116 > 100 µM | MDA-MB-231 > 100 µM | SN12C > 100 µM | HOP-62 > 100 µM | MDA-N > 100 µM | CCRF-CEM > 100 µM | HT-29 > 100 µM | PC-3 > 100 µM | NCI-H460 > 100 µM | NCI/ADR-RES > 100 µM | Hs-578T > 100 µM | OVCAR-4 > 100 µM | SNB-19 > 100 µM | 786-0 > 100 µM

CC1(CCCO)CCCCCCCCCC(C)(CCCO)C1=O (configuration not stated)
inactive: LOX IMVI > 100 µM | UACC-257 > 100 µM | HCT-116 94 µM | MDA-MB-231 > 100 µM | SN12C > 100 µM | HOP-62 > 100 µM | MDA-N > 100 µM | CCRF-CEM 55 µM | HT-29 > 100 µM | PC-3 > 100 µM | NCI-H460 > 100 µM | NCI/ADR-RES > 100 µM | Hs-578T > 100 µM | OVCAR-4 > 100 µM | SNB-19 > 100 µM | HL-60 40 µM | 786-0 > 100 µM

[O-][N+]1=NC(c2ccccc2)=C1c1ccccc1
inactive: TK-10 > 50 µM | LOX IMVI > 50 µM | UACC-257 > 50 µM | HCT-116 > 50 µM | MDA-MB-231 > 50 µM | SN12C > 50 µM | HOP-62 > 50 µM | MDA-N > 50 µM | CCRF-CEM > 50 µM | HT-29 > 50 µM | PC-3 > 50 µM | NCI-H460 > 50 µM | NCI/ADR-RES > 50 µM | Hs-578T > 50 µM | OVCAR-4 > 50 µM | SNB-19 > 50 µM | HL-60 11.4 µM | 786-0 > 50 µM
